# Experimental data from patent publication US12018023B2 (NERVIANO MEDICAL SCIENCES S.R.L., priority 2018, dated 2024).
# pIC50: −log10 of the molar value. Where two headings read alike, the source gives them in different places.
# Tests used:
# [1] = test system: U87MG_IDH1R132H; test: Cellular 2-HG production assay, U87-MG-IDH1 R132H; assay type: cell-based; settings: inhibition of 2HG production, 72 hr incubation, LC-MS/MS
# Experimental: (§1) Cell lines HT-1080 (commercially available) and U87-MG-IDH1^R132H (obtained in analoy to the procedure reported in J. Mol. Neurosci 2013, 50, 165-71) are maintained in E-MEM 10% FCS and incubated at 37° C. in a humidified 5% CO2 atmosphere. Stably transfected U87-MG cell lines are also supplemented with 500 μg/mL G418.
# (§2) Cells are seeded into 96 well black flat bottom plates at a density of 500 cells/well in 100 μL complete medium. After 24 hr the medium is replaced with 200 uL of fresh medium and compounds (dissolved into DMSO) are administrated to the cells using D300E Digital Dispenser (Tecan).
# (§3) After 72 hr of incubation 100 uL from each well are collected and used for 2HG (R(−)-2-hydroxyglutarate) quantification.
# (§4) Levels of 2-HG in cell culture media are determined by LC-MS/MS. Cell supernatants (100 μL/well) are treated with 1 M aqueous trichloroacetic acid containing 130 μM of the internal standard 2-HG-d3 (20 μL/well) in a 96-well plate.
# (§5) The plates are sealed, mildly vortexed for 60 minutes, centrifuged at 4,000 RPM for 15 minutes, placed in a refrigerated autosampler taking care not to shake them, and aliquots of the upper part of the samples are directly injected in the chromatographic system. Calibration standards are obtained by ten fold dilution of aqueous 2-HG stock solutions with blank cell culture medium and denatured exactly in the same way as described above for samples. Samples and standards are assayed for 2-HG by reversed phase chromatography on a C18 column eluted with aqueous 0.15% formic acid and briefly washed with 90% methanol at the end of the run. 2-HG is determined by negative ion electrospray ionization with the internal standard method on a triple quadrupole mass spectrometer monitoring the MRM transitions 147>129 (2-HG) and 150>132 (2-HG-d3). 2-HG inhibition was calculated by comparing treated versus control data using Assay Explore (Symyx) software, with IC50 determined using a sigmoidal fitting algorithm.
# [2] = biological target: T1, IDH1^R132C (Homo sapiens, UniProt O75874, R132C); test: NADPH depletion assay, IDH1 R132C; assay type: biochemical
# T1 construct: purchased not specified
# Procedure, shortened: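 IDH1 R132C (2 nM) preincubated 15 min at RT with compound in Tris-HCl pH 7.6/MgCl2 buffer, then 60 min RT with NADPH and 0.14 mM alpha-ketoglutarate. Remaining NADPH read by diaphorase/resazurin fluorescence (Ex544/Em590).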
# [3] = biological target: T2, IDH1^R132H homodimer enzyme (Homo sapiens, UniProt O75874, R132H); test: NADPH depletion assay, IDH1 R132H; assay type: biochemical
# T2 construct: purchased not specified
# Procedure, shortened: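 IDH1 R132H enzyme (8 nM as diluted) in Tris-HCl pH 7.6 with 10 mM MgCl2, 0.001% Triton X-100 and 4 mM β-mercaptoethanol is preincubated 15 min at RT with compound. Substrate mix (12 uM NADPH, 3.4 mM α-ketoglutarate) is added for 60 min; remaining NAD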
# [4] = test system: HT-1080 (IDH1^R132C); test: Cellular 2-HG production assay, HT-1080; assay type: cell-based; settings: read-out: HT1080 2-HG IC50
# Experimental: as §1, §2, §3, §4, §5
# [5] = biological target: T3, IDH2^R172K (Homo sapiens, UniProt P48735, R172K); test: NADPH depletion assay, IDH2 R172K; assay type: biochemical
# T3 construct: purchased not specified
# T3 sequence (P48735 40-452 R172K): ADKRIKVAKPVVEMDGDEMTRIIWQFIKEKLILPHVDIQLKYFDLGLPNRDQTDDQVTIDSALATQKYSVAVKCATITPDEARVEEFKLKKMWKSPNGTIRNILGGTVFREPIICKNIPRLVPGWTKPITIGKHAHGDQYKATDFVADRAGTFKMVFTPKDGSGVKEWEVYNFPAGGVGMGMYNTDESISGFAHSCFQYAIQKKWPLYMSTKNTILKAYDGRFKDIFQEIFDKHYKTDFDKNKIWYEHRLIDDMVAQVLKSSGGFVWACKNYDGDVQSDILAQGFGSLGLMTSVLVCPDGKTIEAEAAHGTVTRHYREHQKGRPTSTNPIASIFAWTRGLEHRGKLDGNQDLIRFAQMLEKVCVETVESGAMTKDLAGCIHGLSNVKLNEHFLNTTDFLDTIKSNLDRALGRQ
# Procedure, shortened: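 IDH2 R172K (16 nM) was preincubated 15 min at RT with compound (1:3 series from 1 mM in DMSO) in Tris pH 7.6/NaCl/MgCl2/Triton/β-mercaptoethanol. The reaction ran 60 min at RT with 0.55 mM alpha-ketoglutarate and NADPH (12 μM in the substrate mix). Remaining NADPH was read with diaphorase/resazurin fluorescence at Ex544/Em590.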
# [6] = Homo sapiens, HT-1080, 72 h, inhibition of 2HG production, 72 hr incubation, LC-MS/MS
# T2 sequence (O75874 whole entry R132H): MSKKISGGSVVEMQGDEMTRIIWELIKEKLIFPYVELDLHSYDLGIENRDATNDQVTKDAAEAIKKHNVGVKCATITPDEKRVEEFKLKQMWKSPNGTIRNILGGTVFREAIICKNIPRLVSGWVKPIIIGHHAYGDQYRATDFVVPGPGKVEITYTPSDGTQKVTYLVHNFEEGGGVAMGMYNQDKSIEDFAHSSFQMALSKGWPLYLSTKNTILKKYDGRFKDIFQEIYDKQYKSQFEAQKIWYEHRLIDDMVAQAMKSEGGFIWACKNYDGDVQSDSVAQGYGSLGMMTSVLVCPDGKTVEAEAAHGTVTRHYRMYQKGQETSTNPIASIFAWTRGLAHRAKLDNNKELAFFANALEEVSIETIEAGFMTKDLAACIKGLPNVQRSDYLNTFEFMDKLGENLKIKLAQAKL
# T1 sequence (O75874 whole entry R132C): as the sequence (O75874 whole entry R132H) above, with H132C counted along it
SMILES,pIC50 [1],pIC50 [2],pIC50 [3],"pIC50 [4, 6]",pIC50 [5],"pIC50 ([4]; inhibition of 2HG production, 72 hr incubation, LC-MS/MS)","pIC50 ([4]; Homo sapiens, HT-1080, 72 h)"
"C[C@@H]1CN(Cc2ccc([C@H](C)Nc3ncc4ccc(=O)n(CC(C)(C)C)c4n3)c(F)c2)C[C@H](C)O1 [cpd 151, 2-{[(1S)-1-(4-{[(2R,6S)-2,6-dimethylmorpholin-4-yl]methyl}-2-fluorophenyl)ethyl]amino}-8-(2,2-dimethylpropyl)pyrido[2,3-d]pyrimidin-7(8H)-one]",6.49,7.70,7.02,,,,
"C=CC(=O)N1CCN(C(CC)c2ccc([C@H](C)Nc3ncc4ccc(=O)n(Cc5c(F)cccc5F)c4n3)cc2)CC1 (stereo partly drawn) [cpd 216, 2-{[(1S)-1-{4-[1-(4-acryloylpiperazin-1-yl)propyl]phenyl}ethyl]amino}-8-(2,6-difluorobenzyl)pyrido[2,3-d]pyrimidin-7(8H)-one]",,9.00,,8.96,,,
"Cc1ccccc1Cn1c(=O)ccc2cnc(N[C@@H](C)c3ccc(CN4CCC(F)(F)CC4)cc3)nc21 [cpd 112, 2-{[(1S)-1-{4-[(4,4-difluoropiperidin-1-yl)methyl]phenyl}ethyl]amino}-8-(2-methylbenzyl)pyrido[2,3-d]pyrimidin-7(8H)-one]",5.79,6.75,6.72,,,,
"CC(Nc1ncc2ccc(=O)n(CC(C)(C)C)c2n1)c1ccc(C(=O)NC2CCC(F)(F)CC2)c(Cl)c1 (stereo not drawn) [cpd 82, 2-chloro-N-(4,4-difluorocyclohexyl)-4-(1-{[8-(2,2-dimethylpropyl)-7-oxo-pyrido[2,3-d]pyrimidin-2-yl]amino}ethyl) benzamide]",5.88,6.87,6.84,,,,
"C=CC(=O)N1CCN(Cc2ccc([C@H](C)Nc3ncc4ccc(=O)n(CC)c4n3)cc2)[C@H](C(C)C)C1 [cpd 209, 2-{[(1S)-1-(4-{[(2R)-4-acryloyl-2-(propan-2-yl)piperazin-1-yl]methyl}phenyl)ethyl]amino}-8-ethylpyrido[2,3-d]pyrimidin-7(8H)-one]",,7.34,,7.52,,,
"C=CC(=O)N1CCN(C(=O)c2ccc([C@H](C)Nc3ncc4ccc(=O)n(CC(C)(C)C)c4n3)cc2F)CC1 [cpd 142, 2-{[(1S)-1-{4-[(4-acryloylpiperazin-1-yl)carbonyl]-3-fluorophenyl}ethyl]amino}-8-(2,2-dimethylpropyl)pyrido [2,3-d]pyrimidin-7(8H)-one]",,6.67,6.75,,6.26,,7.12
"C=CC(=O)N1CCN([C@@H](CC)c2ccc([C@H](C)Nc3cc4c(ccc(=O)n4C(C)C)cn3)cc2)CC1 [cpd 239, 7-{[(1S)-1-{4-[(1S)-1-(4-acryloylpiperazin-1-yl)propyl]phenyl}ethyl]amino}-1-(propan-2-yl)-1,6-naphthyridin-2(1H)-one]",,8.70,8.70,9.05,7.70,,
"C=CC(=O)N1CCN(C(CC)c2ccc([C@H](C)Nc3ncc4ccc(=O)n(C5CC5)c4n3)cc2)CC1 (stereo partly drawn) [cpd 218, 2-{[(1S)-1-{4-[1-(4-acryloylpiperazin-1-yl)propyl]phenyl}ethyl]amino}-8-cyclopropylpyrido[2,3-d]pyrimidin-7(8H)-one]",,7.89,,8.68,,,
"C=C(C)C(=O)N1CCN(C(CC)c2ccc([C@H](C)Nc3ncc4ccc(=O)n(C(C)C)c4n3)cc2)CC1 (stereo partly drawn) [cpd 221, 2-{[(1S)-1-(4-{1-[4-(2-methylacryloyl)piperazin-1-yl]propyl}phenyl)ethyl]amino}-8-(propan-2-yl)pyrido[2,3-d]pyrimidin-7(8H)-one]",,7.17,,6.85,,,
"C#Cc1ccc(Cn2c(=O)ccc3cnc(N[C@@H](C)c4ccc(CN5CCN(C(=O)C=C)CC5)cc4)nc32)c(F)c1 [cpd 217, 2-{[(1S)-1-{4-[(4-acryloylpiperazin-1-yl)methyl]phenyl}ethyl]amino}-8-(4-ethynyl-2-fluorobenzyl)pyrido[2,3-d]pyrimidin-7(8H)-one]",,7.82,,8.09,,,
C=CC(=O)N1CC[C@H](Oc2ccc([C@H](C)Nc3ncc4ccc(=O)n(CC)c4n3)cc2)C1 [cpd 224],,5.77,,5.97,,,

# Further molecules by rising pIC50 [2], results first:
pIC50 [1],pIC50 [2],pIC50 [3],"pIC50 [4, 6]",pIC50 [5],"pIC50 ([4]; inhibition of 2HG production, 72 hr incubation, LC-MS/MS)",SMILES,"pIC50 ([4]; Homo sapiens, HT-1080, 72 h)"
,6.83,,6.77,,,"C/C=C/C(=O)N1CCN(C(CC)c2ccc([C@H](C)Nc3ncc4ccc(=O)n(C(C)C)c4n3)cc2)CC1 (stereo partly drawn) [cpd 222, 2-({(1S)-1-[4-(1-{4-[(2E)-but-2-enoyl]piperazin-1-yl}propyl)phenyl]ethyl}amino)-8-(propan-2-yl)pyrido[2,3-d]pyrimidin-7(8H)-one]",
,7.18,6.63,6.29,,,"C/C=C/C(=O)N1CCN(Cc2ccc([C@H](C)Nc3ncc4ccc(=O)n(CC(C)(C)C)c4n3)cc2)CC1 [cpd 143, 2-({(1S)-1-[4-({4-[(2E)-but-2-enoyl]piperazin-1-yl}methyl)phenyl]ethyl}amino)-8-(2,2-dimethylpropyl) pyrido [2,3-d]pyrimidin-7(8H)-one]",
,7.21,,,,7.27,"C=CC(=O)N1CCN(Cc2ccc([C@H](C)Nc3ncc4ccc(=O)n(CC)c4n3)cc2)C(C(C)C)C1 (stereo in doubt) [cpd 212, 2-{[(1S)-1-(4-{[(2S)-4-acryloyl-2-(propan-2-yl)piperazin-1-yl]methyl}phenyl)ethyl]amino}-8-ethylpyrido[2,3-d]pyrimidin-7(8H)-one]",
5.54,7.27,6.91,,,,"C[C@H](Nc1ncc2ccc(=O)n(CC(C)(C)CO)c2n1)c1ccc(-c2ccsc2)cc1 [cpd 136, 8-(3-hydroxy-2,2-dimethylpropyl)-2-({(1S)-1-[4-(thiophen-3-yl)phenyl]ethyl}amino)pyrido[2,3-d]pyrimidin-7 (8H)-one]",
,7.70,,7.42,,,CC[C@H](c1ccc([C@H](C)Nc2ncc3ccc(=O)n(C(C)C)c3n2)cc1)N1CCN(C(=O)CCO)CC1 [cpd 243],
,8.00,,8.35,,,"CC(C)n1c(=O)ccc2cnc(N[C@@H](C)c3ccc([C@H](CC4CC4)N4CCN(C(=O)CCCl)CC4)cc3)nc21 [cpd 242, 2-{[(1S)-1-(4-{(1S)-1-[4-(3-chloropropanoyl)piperazin-1-yl]-2-cyclopropylethyl}phenyl)ethyl]amino}-8-(propan-2-yl)pyrido[2,3-d]pyrimidin-7(8H)-one]",
,8.40,8.40,9.05,7.60,,C=CC(=O)N1CCN([C@@H](CC)c2ccc([C@H](C)Nc3cc4c(ccc(=O)n4CC)cn3)cc2)CC1,
,8.40,,8.64,,,"C=CC(=O)N1CCN(C(CC)c2ccc([C@H](C)Nc3ncc4ccc(=O)n(C)c4n3)cc2)CC1 (stereo partly drawn) [cpd 215, 2-{[(1S)-1-{4-[1-(4-acryloylpiperazin-1-yl)propyl]phenyl}ethyl]amino}-8-methylpyrido[2,3-d]pyrimidin-7(8H)-one]",
,8.70,,8.64,,,"C=CC(=O)N1CCN([C@@H](CC2CC2)c2ccc([C@H](C)Nc3cc4c(ccc(=O)n4C(C)C)cn3)cc2)CC1 [cpd 251, 7-{[(1S)-1-{4-[(1S)-1-(4-acryloylpiperazin-1-yl)-2-cyclopropylethyl]phenyl}ethyl]amino}-1-(propan-2-yl)-1,6-naphthyridin-2(1H)-one]",
